Test results from PubChem BioAssay AID2060882 (Molecular Pharmacology Branch, DTP, NCI, 2025).

Test system: 898857-211-R-J1-PDC complex spheroids, growth % test/control
Experiment: Anticancer human tumor 898857-211-R-J1-PDC patient-derived melanoma cell line growth inhibition [RAS]
Conditions: for IC50: curve of first compound; for viability, T/C: stronger effect = lower value
In short: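 Multi-cell-type spheroids: tumor cells plus HUVEC endothelial cells and mesenchymal stem cells. RAS-pathway inhibitors were combined with targeted agents, each dosed in half-log steps down from clinical Cmax, or from 10 microM when Cmax was unknown.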

[1] = second compound 0.000949 µM, first compound 0.0316 µM
[2] = second compound 0.000949 µM, first compound 0.1 µM
[3] = second compound 0.000949 µM, first compound 0.316 µM
[4] = second compound 0.000949 µM, first compound 1 µM
[5] = second compound 0.003 µM, first compound 0.0316 µM
[6] = second compound 0.003 µM, first compound 0.1 µM
[7] = second compound 0.003 µM, first compound 0.316 µM
[8] = second compound 0.003 µM, first compound 1 µM
[9] = second compound 0.00949 µM, first compound 0.0316 µM
[10] = second compound 0.00949 µM, first compound 0.1 µM
[11] = second compound 0.00949 µM, first compound 0.316 µM
[12] = second compound 0.00949 µM, first compound 1 µM
[13] = second compound 0.03 µM, first compound 0.0316 µM
[14] = second compound 0.03 µM, first compound 0.1 µM
[15] = second compound 0.03 µM, first compound 0.316 µM
[16] = second compound 0.03 µM, first compound 1 µM
[17] = second compound 0.0949 µM, first compound 0.0316 µM
[18] = second compound 0.0949 µM, first compound 0.1 µM
[19] = second compound 0.0949 µM, first compound 0.316 µM
[20] = second compound 0.0949 µM, first compound 1 µM
[21] = second compound 0.3 µM, first compound 0.0316 µM
[22] = second compound 0.3 µM, first compound 0.1 µM
[23] = second compound 0.3 µM, first compound 0.316 µM
[24] = second compound 0.3 µM, first compound 1 µM
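Note: spheroids exposed to compound for seven days before readout.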
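Throughout, for viability, T/C: 100% = DMSO vehicle control wells.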

In the case of `C=CC(=O)N1CCN(c2nc(OCC3CCCN3C)nc3c(F)c(-c4nc(N)cc(C)c4C(F)(F)F)c(Cl)cc23)C(C)C1` (stereo unspecified) + CCn1c(-c2cc(N3CCN(C)CC3)cnc2C(C)OC)c2c3cc(ccc31)-c1csc(n1)CC(NC(=O)C1CC1C)C(=O)N1CCCC(N1)C(=O)OCC(C)(C)C2, the IC50 (second compound 0.000949 µM) is reported as greater than 1000 nM, the IC50 (second compound 0.003 µM) is reported as greater than 1000 nM and the IC50 (second compound 0.00949 µM) is reported as greater than 1000 nM. The IC50 (second compound 0.03 µM) was greater than 1000 nM, the IC50 (second compound 0.0949 µM) was greater than 1000 nM and the IC50 (second compound 0.3 µM) was greater than 1000 nM. For the same compound, the viability, T/C (second compound 0.000949 µM, first compound 0.00316 µM) was 124%, the viability, T/C (second compound 0.000949 µM, first compound 0.01 µM) was 106% and the viability, T/C [1] was 105%. It also gave a viability, T/C [2] of 111%, a viability, T/C [3] of 127% and a viability, T/C [4] of 126%. For the same compound, the viability, T/C (second compound 0.003 µM, first compound 0.00316 µM) was 99.6%, the viability, T/C (second compound 0.003 µM, first compound 0.01 µM) was 104% and the viability, T/C [5] was 116%. For the same compound, the viability, T/C [6] was 101%, the viability, T/C [7] was 114% and the viability, T/C [8] was 108%. It also gave a viability, T/C (second compound 0.00949 µM, first compound 0.00316 µM) of 101%, a viability, T/C (second compound 0.00949 µM, first compound 0.01 µM) of 112% and a viability, T/C [9] of 98.9%. For the same compound, the viability, T/C [10] was 101%, the viability, T/C [11] was 118% and the viability, T/C [12] was 104%. The viability, T/C (second compound 0.03 µM, first compound 0.00316 µM) was 106%, the viability, T/C (second compound 0.03 µM, first compound 0.01 µM) was 112% and the viability, T/C [13] was 103%. The viability, T/C [14] was 121%, the viability, T/C [15] was 110% and the viability, T/C [16] was 110%. For the same compound, the viability, T/C (second compound 0.0949 µM, first compound 0.00316 µM) was 111%, the viability, T/C (second compound 0.0949 µM, first compound 0.01 µM) was 117% and the viability, T/C [17] was 117%. The viability, T/C [18] was 116%, the viability, T/C [19] was 120% and the viability, T/C [20] was 110%. For the same compound, the viability, T/C (second compound 0.3 µM, first compound 0.00316 µM) was 123%, the viability, T/C (second compound 0.3 µM, first compound 0.01 µM) was 111% and the viability, T/C [21] was 100%. The viability, T/C [22] was 116%, the viability, T/C [23] was 111% and the viability, T/C [24] was 99.7%.

`C=CC(=O)N1CCN(c2nc(OCC3CCCN3C)nc3c(F)c(-c4nc(N)cc(C)c4C(F)(F)F)c(Cl)cc23)C(C)C1` (stereo unspecified) + C#Cc1c(F)ccc2cc(O)cc(-c3ncc4c(N5CC6CCC(C5)N6)nc(OCC56CCCN5CC(F)C6)nc4c3F)c12 gave an IC50 (second compound 0.0316 µM) greater than 1000 nM, an IC50 (second compound 0.1 µM) greater than 1000 nM and an IC50 (second compound 0.316 µM) greater than 1000 nM. It also gave an IC50 (second compound 1 µM) greater than 1000 nM, an IC50 (second compound 3.16 µM) greater than 1000 nM and an IC50 (second compound 10 µM) of less than 3.16 nM. It also gave a viability, T/C (second compound 0.0316 µM, first compound 0.00316 µM) of 107%, a viability, T/C (second compound 0.0316 µM, first compound 0.01 µM) of 92.9% and a viability, T/C (second compound 0.0316 µM, first compound 0.0316 µM) of 103%. It also gave a viability, T/C (second compound 0.0316 µM, first compound 0.1 µM) of 103%, a viability, T/C (second compound 0.0316 µM, first compound 0.316 µM) of 117% and a viability, T/C (second compound 0.0316 µM, first compound 1 µM) of 118%. For the same compound, the viability, T/C (second compound 0.1 µM, first compound 0.00316 µM) was 109%, the viability, T/C (second compound 0.1 µM, first compound 0.01 µM) was 107% and the viability, T/C (second compound 0.1 µM, first compound 0.0316 µM) was 109%. The viability, T/C (second compound 0.1 µM, first compound 0.1 µM) was 105%, the viability, T/C (second compound 0.1 µM, first compound 0.316 µM) was 126% and the viability, T/C (second compound 0.1 µM, first compound 1 µM) was 117%. The viability, T/C (second compound 0.316 µM, first compound 0.00316 µM) was 95.8%, the viability, T/C (second compound 0.316 µM, first compound 0.01 µM) was 91.4% and the viability, T/C (second compound 0.316 µM, first compound 0.0316 µM) was 100%. For the same compound, the viability, T/C (second compound 0.316 µM, first compound 0.1 µM) was 96%, the viability, T/C (second compound 0.316 µM, first compound 0.316 µM) was 114% and the viability, T/C (second compound 0.316 µM, first compound 1 µM) was 129%. It also gave a viability, T/C (second compound 1 µM, first compound 0.00316 µM) of 104%, a viability, T/C (second compound 1 µM, first compound 0.01 µM) of 102% and a viability, T/C (second compound 1 µM, first compound 0.0316 µM) of 101%. It also gave a viability, T/C (second compound 1 µM, first compound 0.1 µM) of 104%, a viability, T/C (second compound 1 µM, first compound 0.316 µM) of 105% and a viability, T/C (second compound 1 µM, first compound 1 µM) of 98.9%. It also gave a viability, T/C (second compound 3.16 µM, first compound 0.00316 µM) of 99.4%, a viability, T/C (second compound 3.16 µM, first compound 0.01 µM) of 93.5% and a viability, T/C (second compound 3.16 µM, first compound 0.0316 µM) of 86.6%. For the same compound, the viability, T/C (second compound 3.16 µM, first compound 0.1 µM) was 106%, the viability, T/C (second compound 3.16 µM, first compound 0.316 µM) was 116% and the viability, T/C (second compound 3.16 µM, first compound 1 µM) was 87.3%. For the same compound, the viability, T/C (second compound 10 µM, first compound 0.00316 µM) was 56.5%, the viability, T/C (second compound 10 µM, first compound 0.01 µM) was 39.5% and the viability, T/C (second compound 10 µM, first compound 0.0316 µM) was 41.1%. For the same compound, the viability, T/C (second compound 10 µM, first compound 0.1 µM) was 50.5%, the viability, T/C (second compound 10 µM, first compound 0.316 µM) was 21.3% and the viability, T/C (second compound 10 µM, first compound 1 µM) was 1.25%.

`CC(=O)OC12COC1CC(O)C1(C)C(=O)C(O)C3=C(C)C(OC(=O)C(O)C(NC(=O)OC(C)(C)C)c4ccccc4)CC(O)(C(OC(=O)c4ccccc4)C21)C3(C)C` (stereo unspecified) + CCn1c(-c2cc(N3CCN(C)CC3)cnc2C(C)OC)c2c3cc(ccc31)-c1csc(n1)CC(NC(=O)C1CC1C)C(=O)N1CCCC(N1)C(=O)OCC(C)(C)C2 gave an IC50 (second compound 0.000949 µM) of less than 31.6 nM, an IC50 (second compound 0.003 µM) of less than 31.6 nM and an IC50 (second compound 0.00949 µM) of less than 31.6 nM. It also gave an IC50 (second compound 0.03 µM) of less than 31.6 nM, an IC50 (second compound 0.0949 µM) of less than 31.6 nM and an IC50 (second compound 0.3 µM) of less than 31.6 nM. For the same compound, the viability, T/C [1] was 11.2%, the viability, T/C [2] was 9.4% and the viability, T/C [3] was 9.05%. For the same compound, the viability, T/C [4] was 13.3%, the viability, T/C (second compound 0.000949 µM, first compound 3.16 µM) was 13.9% and the viability, T/C (second compound 0.000949 µM, first compound 10 µM) was 14.7%. The viability, T/C [5] was 11.4%, the viability, T/C [6] was 12.9% and the viability, T/C [7] was 9.53%. It also gave a viability, T/C [8] of 12.5%, a viability, T/C (second compound 0.003 µM, first compound 3.16 µM) of 12.7% and a viability, T/C (second compound 0.003 µM, first compound 10 µM) of 12.8%. The viability, T/C [9] was 10.9%, the viability, T/C [10] was 11.4% and the viability, T/C [11] was 13%. For the same compound, the viability, T/C [12] was 12.4%, the viability, T/C (second compound 0.00949 µM, first compound 3.16 µM) was 14.6% and the viability, T/C (second compound 0.00949 µM, first compound 10 µM) was 14.2%. It also gave a viability, T/C [13] of 10.9%, a viability, T/C [14] of 10.7% and a viability, T/C [15] of 13.3%. For the same compound, the viability, T/C [16] was 12.9%, the viability, T/C (second compound 0.03 µM, first compound 3.16 µM) was 15.6% and the viability, T/C (second compound 0.03 µM, first compound 10 µM) was 14.6%. The viability, T/C [17] was 12.1%, the viability, T/C [18] was 12.2% and the viability, T/C [19] was 12.3%. For the same compound, the viability, T/C [20] was 14.4%, the viability, T/C (second compound 0.0949 µM, first compound 3.16 µM) was 14.4% and the viability, T/C (second compound 0.0949 µM, first compound 10 µM) was 15.4%. It also gave a viability, T/C [21] of 12.9%, a viability, T/C [22] of 11.9% and a viability, T/C [23] of 11.8%. The viability, T/C [24] was 15.8%, the viability, T/C (second compound 0.3 µM, first compound 3.16 µM) was 14.9% and the viability, T/C (second compound 0.3 µM, first compound 10 µM) was 18.7%.
